In PubChem BioAssay (NCI):
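Step 1: Grow cells in 96-well plates. Step 2: Expose to compound for 48 hours at 5 concentrations. Step 3: Interpolate endpoints linearly; if unreached, use highest concentration. At the GI50, growth is halved. TGI marks complete inhibition of growth.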

Legend:
Assay in all cases: inhibition of tumour cell growth, NCI panel, 48 h
[1] = system: LOX IMVI melanoma
[2] = system: NCI-H460 lung
[3] = system: HT29 colon
[4] = system: SNB-75 CNS
[5] = system: OVCAR-3 ovarian
[6] = system: COLO 205 colon
[7] = system: T-47D breast
[8] = system: SK-MEL-5 melanoma
[9] = system: OVCAR-8 ovarian
[10] = system: UACC-62 melanoma
[11] = system: TK-10 renal
[12] = system: SK-OV-3 ovarian
[13] = system: A549 NSCLC
[14] = system: MCF7 breast
[15] = system: MOLT-4 leukemia
[16] = system: CCRF-CEM leukemia
[17] = system: RPMI-8226 leukemia
[18] = system: HL-60(TB) leukemia
[19] = system: SNB-19 CNS
[20] = system: MDA-MB-435
[21] = system: MDA-MB-231 breast
[22] = system: IGROV1 ovarian
[23] = system: SK-MEL-28 melanoma
[24] = system: UO-31 renal
[25] = system: SK-MEL-2 melanoma
[26] = system: SN12C renal
[27] = system: SR leukemia
[28] = system: HS 578T breast
[29] = system: SF-295 CNS
[30] = system: 786-0 renal
[31] = system: PC-3 prostate
[32] = system: KM12 colon
[33] = system: K-562 leukemia
[34] = system: CAKI-1 renal
[35] = system: NCI-H226 lung
[36] = system: M14 melanoma
[37] = system: HOP-62 NSCLC
[38] = system: OVCAR-5 ovarian
[39] = system: SF-539 CNS
[40] = system: HCT-15 colon
[41] = system: RXF 393 renal
[42] = system: DU-145 prostate
[43] = system: HOP-92 NSCLC
[44] = system: ACHN renal
[45] = system: A498 renal
[46] = system: MALME-3M melanoma
[47] = system: U251 CNS
[48] = system: HCC-2998 colon
[49] = system: NCI/ADR-RES ovarian
[50] = system: NCI-H23 lung

Compound: COC(=O)[C@]12CC[C@@H](C(=O)/C=C/c3cccnc3)[C@@H]1[C@H]1CC[C@@H]3[C@@]4(C)C/C(=C/c5cccnc5)C(=O)C(C)(C)[C@@H]4CC[C@@]3(C)[C@]1(C)CC2
- GI50 [1]: 210 nM
- TGI [1]: 442 nM
- GI50 [2]: 510 nM
- TGI [2]: 1570 nM
- GI50 [3]: 319 nM
- TGI [3]: 1020 nM
- GI50 [4]: 1350 nM
- TGI [4]: 2630 nM
- GI50 [5]: 231 nM
- TGI [5]: 514 nM
- GI50 [6]: 357 nM
- TGI [6]: 1350 nM
- GI50 [7]: 405 nM
- TGI [7]: 2420 nM
- GI50 [8]: 335 nM
- TGI [8]: 983 nM
- GI50 [9]: 388 nM
- TGI [9]: 1870 nM
- GI50 [10]: 327 nM
- TGI [10]: 1050 nM
- GI50 [11]: 701 nM
- TGI [11]: 2070 nM
- GI50 [12]: 2730 nM
- TGI [12]: 6890 nM
- GI50 [13]: 401 nM
- TGI [13]: 2310 nM
- GI50 [14]: 387 nM
- TGI [14]: 1830 nM
- GI50 [15]: 359 nM
- TGI [15]: 1770 nM
- GI50 [16]: 334 nM
- TGI [16]: 1650 nM
- GI50 [17]: 258 nM
- TGI [17]: 838 nM
- GI50 [18]: 292 nM
- TGI [18]: 1510 nM
- GI50 [19]: 665 nM
- TGI [19]: 1970 nM
- GI50 [20]: 204 nM
- TGI [20]: 420 nM
- GI50 [21]: 223 nM
- TGI [21]: 508 nM
- GI50 [22]: 241 nM
- TGI [22]: 570 nM
- GI50 [23]: 245 nM
- TGI [23]: 565 nM
- GI50 [24]: 167 nM
- TGI [24]: 331 nM
- GI50 [25]: 296 nM
- TGI [25]: 1020 nM
- GI50 [26]: 429 nM
- TGI [26]: 1670 nM
- GI50 [27]: 281 nM
- TGI [27]: 1270 nM
- GI50 [28]: 395 nM
- TGI [28]: 1930 nM
- GI50 [29]: 382 nM
- TGI [29]: 1440 nM
- GI50 [30]: 374 nM
- TGI [30]: 1330 nM
- GI50 [31]: 412 nM
- TGI [31]: 2090 nM
- GI50 [32]: 317 nM
- TGI [32]: 1050 nM
- GI50 [33]: 309 nM
- TGI [33]: > 100000 nM
- GI50 [34]: 716 nM
- TGI [34]: 2000 nM
- GI50 [35]: 260 nM
- TGI [35]: 597 nM
- GI50 [36]: 310 nM
- TGI [36]: 1010 nM
- GI50 [37]: 789 nM
- TGI [37]: 2340 nM
- GI50 [38]: 369 nM
- TGI [38]: 1340 nM
- GI50 [39]: 207 nM
- TGI [39]: 473 nM
- GI50 [40]: 247 nM
- TGI [40]: 666 nM
- GI50 [41]: 219 nM
- TGI [41]: 509 nM
- GI50 [42]: 773 nM
- TGI [42]: 2030 nM
- GI50 [43]: 434 nM
- TGI [43]: 1730 nM
- GI50 [44]: 191 nM
- TGI [44]: 348 nM
- GI50 [45]: 224 nM
- TGI [45]: 947 nM
- GI50 [46]: 201 nM
- TGI [46]: 416 nM
- GI50 [47]: 360 nM
- TGI [47]: 1340 nM

Compound: NC(N)=N/N=C\c1c(-c2cccc([N+](=O)[O-])c2)nc2sc(Cl)cn12
- TGI [1]: > 100000 nM
- TGI [48]: 4920 nM
- TGI [49]: > 100000 nM
- TGI [7]: 4400 nM
- TGI [8]: 78200 nM
- TGI [10]: > 100000 nM
- TGI [15]: 4530 nM
- TGI [50]: 5690 nM
- TGI [22]: 4050 nM
- TGI [24]: 3320 nM
- TGI [27]: 3070 nM
- TGI [28]: > 100000 nM
- TGI [30]: > 100000 nM
- TGI [33]: > 100000 nM
- TGI [35]: > 100000 nM
- TGI [38]: > 100000 nM
- TGI [40]: > 100000 nM
- TGI [44]: > 100000 nM
- TGI [45]: 62700 nM
- TGI [46]: 5040 nM
